# Experimental data taken from patent publication US20260262643A1, “HERBICIDAL BENZOXAZINES” (FMC CORPORATION, priority 2022, published 2026).
# What was measured:
# [1] = tested on: pigweed, palmer; assay: Test A postemergence; type: in vivo, Amaranthus palmeri; settings: Amaranthus palmeri, post-emergence, 240 h, postemergence, 10 days, 0 to 100 scale (0 no effect, 100 complete control)
# Outline: (§1)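 Loam/sand soil; pre-em directed soil spray at planting, post-em spray at 1–2 leaf (2–10 cm). Compound in non-phytotoxic solvent + surfactant. Greenhouse 10 d; visual injury vs untreated, 0 = no effect, 100 = complete control.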
# [2] = tested on: foxtail, giant; assay: Test A postemergence; type: in vivo, Setaria faberi; settings: Setaria faberi, post-emergence, 240 h, postemergence, 10 days, 0 to 100 scale (0 no effect, 100 complete control)
# Outline: as §1
# [3] = tested on: wheat; assay: Test A postemergence; type: in vivo, Triticum aestivum; settings: Triticum aestivum, post-emergence, 240 h, postemergence, 10 days, 0 to 100 scale (0 no effect, 100 complete control)
# Outline: as §1
# [4] = tested on: galium; assay: Test A postemergence; type: in vivo, Galium aparine; settings: Galium, post-emergence, 240 h, postemergence, 10 days, 0 to 100 scale (0 no effect, 100 complete control)
# Outline: as §1
# [5] = tested on: blackgrass; assay: Test A postemergence; type: in vivo, Alopecurus myosuroides; settings: Alopecurus myosuroides, post-emergence, 240 h, postemergence, 10 days, 0 to 100 scale (0 no effect, 100 complete control)
# Outline: as §1
# [6] = tested on: ragweed; assay: Test A postemergence; type: in vivo, Ambrosia artemisiifolia; settings: Ambrosia artemisiifolia, post-emergence, 240 h, postemergence, 10 days, 0 to 100 scale (0 no effect, 100 complete control)
# Outline: as §1
# [7] = tested on: sedge, umbrella; assay: Test B flooded paddy test; type: in vivo, Cyperus difformis; settings: Cyperus difformis, 312 h; 250 g ai/ha, Flood, 13 days, 0 to 100 scale (0 no effect, 100 complete control); read-out: Plant response rating, Sedge, Umbrella
# Outline: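 Flooded to 3 cm at treatment time, 2-leaf plants got the test compound applied straight into the paddy water. They then stayed under constant flood in a greenhouse for 13 days. Ratings used a 0 to 100 visual scale.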
# [8] = tested on: soybean; assay: Test A preemergence; type: in vivo, Glycine max; settings: Glycine max, pre-emergence, 240 h, read-out: Plant response rating, Soybean
# Outline: as §1
# [9] = tested on: ryegrass, Italian; assay: Test A postemergence; type: in vivo, Lolium multiflorum; settings: Lolium multiflorum, post-emergence, 240 h, postemergence, 10 days, 0 to 100 scale (0 no effect, 100 complete control)
# Outline: as §1
# [10] = tested on: goosegrass; assay: Test A preemergence; type: in vivo, Eleusine indica; settings: Eleusine indica, pre-emergence, 240 h, read-out: Plant response rating, Goosegrass
# Outline: as §1
# [11] = tested on: foxtail, giant; assay: Test A preemergence; type: in vivo, Setaria faberi; settings: Setaria faberi, pre-emergence, 240 h, read-out: Plant response rating, Foxtail, Giant
# Outline: as §1
# [12] = tested on: blackgrass; assay: Test A preemergence; type: in vivo, Alopecurus myosuroides; settings: Alopecurus myosuroides, pre-emergence, 240 h, read-out: Plant response rating, Blackgrass
# Outline: as §1
# [13] = tested on: oat, wild; assay: Test A postemergence; type: in vivo, Avena fatua; settings: Avena fatua, post-emergence, 240 h, postemergence, 10 days, 0 to 100 scale (0 no effect, 100 complete control)
# Outline: as §1
# [14] = tested on: goosegrass; assay: Test A postemergence; type: in vivo, Eleusine indica; settings: Eleusine indica, post-emergence, 240 h, postemergence, 10 days, 0 to 100 scale (0 no effect, 100 complete control)
# Outline: as §1
# [15] = 125 g ai/ha, visual injury after 10 days, 0 to 100 scale, 0 is no effect, 100 is complete control
# [16] = 500 g ai/ha, 0 to 100 scale (0 no effect, 100 complete control), 10 days
structure (smiles),measurement,setting,value
"Cc1ccc(-n2cnc(C3CCC3)n2)cc1C(=O)N1C[C@H](C)Oc2c(Cl)cccc21 [Compound 96, [(2S)-8-Chloro-2,3-dihydro-2-methyl-4H-1,4-benzoxazin-4-yl][5-(3-cyclobutyl-1H-1,2,4-triazol-1-yl)-2-methylphenyl]methanone]",pest or weed control at 125 g/ha,"[1]; 125 g ai/ha, read-out: Pigweed, Palmer plant response rating",90%
same,pest or weed control at 500 g/ha,"[1]; 500 g ai/ha, visual injury, read-out: Plant response rating, Pigweed, Palmer",90%
same,pest or weed control at 125 g/ha,"[2]; 125 g ai/ha, read-out: Foxtail, Giant plant response rating",90%
same,pest or weed control at 500 g/ha,"[2]; 500 g ai/ha, visual injury, read-out: Plant response rating, Foxtail, Giant",90%
same,plant injury at 125 g/ha,"[3]; 125 g ai/ha, read-out: Wheat plant response rating",30%
same,plant injury at 500 g/ha,"[3]; 500 g ai/ha, visual injury, read-out: Plant response rating, Wheat",40%
same,pest or weed control at 125 g/ha,"[4]; 125 g ai/ha, read-out: Galium plant response rating",100%
same,pest or weed control at 500 g/ha,"[4]; 500 g ai/ha, visual injury, read-out: Plant response rating, Galium",100%
same,pest or weed control at 125 g/ha,"[5]; 125 g ai/ha, read-out: Blackgrass plant response rating",50%
same,pest or weed control at 500 g/ha,"[5]; 500 g ai/ha, visual injury, read-out: Plant response rating, Blackgrass",90%
same,pest or weed control at 125 g/ha,"[6]; 125 g ai/ha, read-out: Ragweed plant response rating",60%
same,pest or weed control at 500 g/ha,"[6]; 500 g ai/ha, visual injury, read-out: Plant response rating, Ragweed",70%
same,pest or weed control at 250 g/ha,[7],98%
same,plant injury at 125 g/ha,[8]; [15],50%
same,plant injury at 500 g/ha,[8]; [16],50%
same,pest or weed control at 125 g/ha,"[9]; 125 g ai/ha, read-out: Ryegrass, Italian plant response rating",50%
same,pest or weed control at 500 g/ha,"[9]; 500 g ai/ha, visual injury, read-out: Plant response rating, Ryegrass, Italian",100%
same,pest or weed control at 125 g/ha,[10]; [15],100%
same,pest or weed control at 500 g/ha,[10]; [16],100%
same,pest or weed control at 125 g/ha,[11]; [15],100%
same,pest or weed control at 500 g/ha,[11]; [16],100%
same,pest or weed control at 125 g/ha,[12]; [15],40%
same,pest or weed control at 500 g/ha,[12]; [16],80%
same,pest or weed control at 125 g/ha,"[13]; 125 g ai/ha, read-out: Oat, Wild plant response rating",30%
same,pest or weed control at 500 g/ha,"[13]; 500 g ai/ha, visual injury, read-out: Plant response rating, Oat, Wild",80%
same,pest or weed control at 125 g/ha,"[14]; 125 g ai/ha, read-out: Goosegrass plant response rating",30%
same,pest or weed control at 500 g/ha,"[14]; 500 g ai/ha, visual injury, read-out: Plant response rating, Goosegrass",60%
